# Tests used:
# Example 6: safety = assay: Example 6: safety; parameters: species or system human; conditions: in vivo
# Description: Safety was monitored by vital sign measurements and documentation of adverse events (AE) during all visits throughout the study.
# Safety data included AEs, laboratory data, vital signs, physical examinations, and ECGs. Vital signs (systolic and diastolic blood pressure, respiration rate, heart rate, and body temperature) for each treatment group were summarized at baseline (defined as the −30 min time point) and at the end of each study day.
# blood glucose = test system: blood glucose; parameters: species or system Sprague-Dawley rats; conditions: rat, in vivo, 0.05 mg/kg
# Description: An aqueous insulin stock solution was prepared (at pH 7.5) with a final insulin concentration of approximately 15 mg/mL. Delivery agents were dissolved in water with subsequent additions of sodium hydroxide or hydrochloric acid to both dissolve the delivery agent and to titrate the dosing solution to pH 7.5-8.5. The required amount of insulin was added to the delivery agent solution before dosing.
# Insulin levels in the rats were assayed using the Insulin ELISA Test Kit [DSL, Webster, Tex. Cat. #DSL-10-1600]. The assay covered the range 3.125 to 250 mU/mL. Blood glucose levels in the rats were measured using a glucometer, One-Touch Basic Blood Glucose Monitoring System, manufactured by Lifescan Inc. (Milpitas, Calif.).
# A total of 60 male Sprague-Dawley rats were fasted for 24 hours and then anesthetized with Thorazine (1.5 mg/kg, im) and Ketamine (44 mg/kg, im). They were then divided into the following 5 treatment groups: • 1. H2O (p.o. 1 mL/kg) • 2. Carrier (p.o., 1 mL/kg; 200 mg/kg) • 3. Insulin (p.o., 1 ml/kg; 0.5 mg/kg) • 4. Insulin and Carrier (p.o., 1 ml/kg; 0.5 mg/kg Insulin and 200 mg/kg 1182) • 5. Insulin (s.c., 0.05 mg/kg) • There were twelve animals per group, with three being sacrificed at 30, 60, 120 and 180 minutes. For serum insulin and blood glucose monitoring, 0.4 mL of blood was drawn from the tail artery. […]
# glucose infusion rate = assay: Example 6: glucose clamp study, glucose infusion rate PD and relative biopotency; type: in vivo, human; conditions: SC 15 U
# Excerpt: The glucose clamp technique was applied to compare the time-action profiles of the orally applied insulin in comparison to SC regular insulin. This method utilizes negative feedback from frequent blood glucose sample values to adjust a glucose infusion to maintain a defined and constant blood glucose level. The glucose infusion rate therefore becomes a measure of the pharmacodynamic effect of any insulin administered.
# During each study visit, stabilized individual blood glucose concentrations were maintained after drug administration using a glucose clamp procedure. The glucose clamp technique [DeFronzo, et al. 1979, Glucose Clamp Technique: A Method of Quantifying Insulin Secretion and Resistance, Am. J. Physiol. 237: E214-E223.] was use to compare the time-action profiles of the orally-applied insulin to s.c. insulin. This method utilizes negative feedback from frequent blood glucose sample values to adjust a glucose infusion to maintain euglycemia. The glucose infusion rate becomes a measure of the pharmacodynamic effect of any insulin administered.
# The clamp level was adjusted by a variable intravenous (IV) insulin infusion and glucose infusion rate during a 6 hour baseline period before dosing. During the last 2 hours before administration of the study medication, the insulin infusion was set to a rate of 0.2 mU/kg/min, which rate was not changed until the end of the experiment. At t=0 minutes, exogenous insulin was administered by oral administration or by SC injection. The PD response elicited by the study medication was registered for another 6 hours. No food intake was allowed during this period, but water could be consumed as desired.
# The glucose clamp procedure was performed using a Biostator (glucose controlled insulin infusion system—GCIIS, Life Science Instruments, Elkhart, Ind., USA). A 17-gauge PTFE catheter was inserted into an antecubital vein for blood sampling and kept patent with 0.15 mol/L saline. A dorsal hand vein or lateral wrist vein of the same arm was cannulated in retrograde fashion for insertion of an 18-gauge PTFE double lumen catheter connected to the glucose sensor of the Biostator. The catheterized hand was placed in a hot box and warmed to an air temperature of 55° C. On the contralateral arm, a third vein was cannulated with an 18-gauge PTFE catheter to infuse a glucose solution (20% in water). Into the same vein, an insulin solution (regular human insulin in 0.15 mol/L saline diluted with 2 mL of the patient's blood per 100 mL) was continuously infused by means of a syringe pump (Perfusor Secura FT, Braun, Melsungen, Germany).
# The primary PD endpoint of the study was the area under the glucose infusion rate curve (AUCGIR) in the first hr after drug administration (AUCGIR 0-1h). The secondary endpoints for pharmacodynamic assessment were the following parameters: Maximum glucose infusion rate (GIRmax), time to GIRmax (tGIRmax), area under the glucose infusion rate curve in defined time-intervals (AUCGIR 0-2h, AUCGIR 0-3h, AUCGIR 0-4h, AUCGIR 0-5h, AUCGIR 0-6h), time to early and late half-maximum glucose infusion rate (early and late TGIR 50%), and maximum reduction of C-peptide concentrations.
# PD parameters used for analysis were the maximum glucose infusion rate after application of the study drugs (GIRmax), the time to maximum glucose infusion rate (tGIRmax), time to half-maximum GIR values before GIRmax (early tGIR 50%), time to half-maximum GIR values after GIRmax (late tGIR 50%), and the area under the glucose infusion rate versus time curves from 0 to 60, 120, 180, 240, 300, and 360 min after dosing, and from 180 to 360 min post dose (AUCGIR 0-1h, AUCGIR 0-2h, AUCGIR 0-3h AUCGIR 0-4h, AUCGIR 0-5h, AUCGIR 0-6h, AUCGIR 3-6h, respectively). In addition, plasma concentrations of C-peptide and plasma glucose concentrations were used for PD analysis. […]
substance,measurement,setting,value
SC insulin: human regular insulin injected subcutaneously (Humulin R or equivalent; Calbiochem insulin in the rat studies),Adverse events / tolerability,Example 6: safety,No adverse events were observed
same,Delay of tmax vs oral,blood glucose,about 15 minutes
same,GIR Early t50%,glucose infusion rate,150 ± 87 min
same,GIRmax,glucose infusion rate,3.6 ± 1.8 mg/kg/min
same,Glucose infusion rate AUC0-1h,glucose infusion rate,27 ± 32 mg/kg
same,Glucose infusion rate AUC0-2h,glucose infusion rate,136.54 ± 106.54 mg/kg
same,Glucose infusion rate AUC0-3h,glucose infusion rate,271.43 ± 191.04 mg/kg
same,Glucose infusion rate AUC0-4h,glucose infusion rate,421.33 ± 264.76 mg/kg
same,Glucose infusion rate AUC0-5h,glucose infusion rate,548.83 ± 342.71 mg/kg
same,Glucose infusion rate AUC0-6h,glucose infusion rate,650.70 ± 380.16 mg/kg
same,tGIRmax,glucose infusion rate,255 ± 108 min
same,GIR Early t50%,glucose infusion rate; listed as SC Regular Insulin,150.40 ± 87.44 min
same,GIRmax,glucose infusion rate; listed as SC Regular Insulin,3.57 ± 1.79 mg/kg/min
same,Glucose infusion rate AUC0-1h,glucose infusion rate; listed as SC Regular Insulin,27.38 ± 32.22 mg/kg
same,tGIRmax,glucose infusion rate; listed as SC Regular Insulin,255.30 ± 108.15 min
